Converted amounts (≈) assume the structure as drawn. The source made the active and inactive calls. No cut-off for these calls is given here. Where only a bound is given, the exact number is not on record here.

A short description of data set [1]: Photostability of compound assessed as compound decomposition at 5 mg incubated for 1 week under natural sun light-irradiation and air. The class given is physicochemical. Conditions: 168 h, time 1 weeks.
Data set [2] is described as follows: Metabolic stability in mouse liver microsomes assessed as intrinsic clearance at 1 uM incubated for 120 mins in presence of NADPH by HPLC-MS/MS analysis. The conditions noted are these: read-out: CLH. It is filed as ADME, Microsome. (In general: Liver microsomes are vesicles of endoplasmic reticulum, rich in cytochrome P450 enzymes.)
A short description of data set [3]: Stability in CD-1 mouse plasma assessed as half life at 1 uM incubated for 15 mins by HPLC-MS/MS analysis. It is filed as ADME, cell-free.
Data set [4] in a line: Kinetic solubility of compound in 1% DMSO/PBS incubated for 5 mins under shaking condition by turbidimetric method. It is filed as physicochemical. Conditions: read-out: Kinetic_solubility.
The nature of data set [5]: Metabolic stability in mouse liver microsomes assessed as half life at 1 uM incubated for 120 mins in presence of NADPH by HPLC-MS/MS analysis. It is filed as ADME, Microsome.
The test system of a further data set is PC12. Briefly: Agonist activity at TRPC6 channel in rat PC12 cells assessed as induction of intracellular calcium level at 10 uM by FLIPR calcium 6 assay. It is filed as cell-based. The conditions noted are these: time 2.0 hrs. On the technique in general: Calcium flux is commonly read through the fluorescence of an indicator in the cells.
Data set [6] has as its target T1, Short transient receptor potential channel 6 (Homo sapiens) (UniProt Q9Y210).
T1 sequence (whole entry): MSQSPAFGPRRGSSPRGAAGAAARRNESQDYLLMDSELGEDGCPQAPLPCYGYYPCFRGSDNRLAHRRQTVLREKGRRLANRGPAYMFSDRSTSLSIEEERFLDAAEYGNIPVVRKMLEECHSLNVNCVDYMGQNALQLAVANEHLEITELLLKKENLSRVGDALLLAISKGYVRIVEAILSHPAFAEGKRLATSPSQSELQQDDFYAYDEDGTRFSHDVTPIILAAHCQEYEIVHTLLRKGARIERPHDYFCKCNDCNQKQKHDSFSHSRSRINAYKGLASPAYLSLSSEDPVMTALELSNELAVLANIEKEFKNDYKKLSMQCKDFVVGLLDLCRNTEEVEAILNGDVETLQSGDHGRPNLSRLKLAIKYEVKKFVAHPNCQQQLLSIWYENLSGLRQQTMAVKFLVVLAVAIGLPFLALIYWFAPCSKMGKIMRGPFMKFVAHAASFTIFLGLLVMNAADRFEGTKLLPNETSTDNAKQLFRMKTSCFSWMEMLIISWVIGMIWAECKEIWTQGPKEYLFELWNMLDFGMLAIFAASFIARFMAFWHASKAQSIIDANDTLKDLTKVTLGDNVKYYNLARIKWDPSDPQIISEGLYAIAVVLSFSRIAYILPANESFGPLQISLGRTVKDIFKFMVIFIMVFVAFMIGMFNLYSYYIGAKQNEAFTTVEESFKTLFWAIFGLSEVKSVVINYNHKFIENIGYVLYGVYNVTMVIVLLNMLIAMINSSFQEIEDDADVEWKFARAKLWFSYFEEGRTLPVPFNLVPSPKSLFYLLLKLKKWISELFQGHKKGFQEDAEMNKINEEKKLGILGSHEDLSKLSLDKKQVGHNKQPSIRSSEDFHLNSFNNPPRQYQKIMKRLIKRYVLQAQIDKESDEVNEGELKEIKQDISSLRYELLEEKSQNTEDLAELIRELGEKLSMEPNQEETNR
Briefly: Agonist activity at […] TRPC6 channel in HEK293 cells assessed as intracellular calcium influx stimulation at 10 uM by Fura-2 AM staining based calcium influx assay. The conditions noted are these: filed as agonist. The class given is cell-based.

In data set [7] the target is T2, Short transient receptor potential channel 3 (Homo sapiens) (UniProt Q13507).
T2 sequence (whole entry): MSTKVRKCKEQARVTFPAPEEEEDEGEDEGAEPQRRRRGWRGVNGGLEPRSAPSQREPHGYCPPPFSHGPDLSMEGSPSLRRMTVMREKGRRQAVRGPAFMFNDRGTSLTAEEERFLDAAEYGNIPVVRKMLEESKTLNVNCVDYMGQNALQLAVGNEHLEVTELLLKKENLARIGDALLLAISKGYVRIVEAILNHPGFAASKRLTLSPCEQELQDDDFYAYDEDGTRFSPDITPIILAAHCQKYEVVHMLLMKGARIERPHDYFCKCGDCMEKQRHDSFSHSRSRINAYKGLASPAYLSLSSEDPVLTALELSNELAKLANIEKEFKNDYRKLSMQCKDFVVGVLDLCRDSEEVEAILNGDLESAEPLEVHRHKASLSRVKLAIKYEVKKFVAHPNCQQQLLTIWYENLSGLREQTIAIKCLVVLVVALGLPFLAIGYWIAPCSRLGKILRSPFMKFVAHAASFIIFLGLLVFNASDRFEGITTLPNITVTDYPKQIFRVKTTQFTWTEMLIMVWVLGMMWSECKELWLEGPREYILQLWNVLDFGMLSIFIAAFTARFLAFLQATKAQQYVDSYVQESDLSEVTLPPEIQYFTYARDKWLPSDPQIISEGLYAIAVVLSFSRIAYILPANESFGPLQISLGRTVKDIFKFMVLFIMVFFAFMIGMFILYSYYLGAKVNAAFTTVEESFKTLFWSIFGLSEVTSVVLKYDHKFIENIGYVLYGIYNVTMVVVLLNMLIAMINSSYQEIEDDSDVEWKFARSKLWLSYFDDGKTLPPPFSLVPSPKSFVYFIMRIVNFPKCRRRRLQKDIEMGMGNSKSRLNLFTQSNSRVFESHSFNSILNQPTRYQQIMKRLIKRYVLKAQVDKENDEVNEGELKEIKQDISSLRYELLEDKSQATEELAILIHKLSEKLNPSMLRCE
Nature of the data set: Agonist activity at […] TRPC3 channel in HEK293 cells assessed as intracellular calcium influx stimulation at 10 uM by Fura-2 AM staining based calcium influx assay. It is filed as cell-based. The conditions noted are these: filed as agonist.

The target of data set [8] is T1, Short transient receptor potential channel 6 (Homo sapiens). Nature of the data set: Agonist activity at TRPC6 channel in HEK293 cells assessed as intracellular calcium influx stimulation at 1 to 10 uM by Fura-2 AM staining based calcium influx assay. The class given is cell-based. The conditions noted are these: filed as agonist, dose 1-10 µM.

Usually half-life stands for the time in which the quantity being followed falls by half. For the compound `C=CC[C@@]12C[C@H](CC=C(C)C)C(C)(C)[C@@](CC=C)(C(=O)C(C(C)=O)=C1[O-])C2=O.[Na+]`, the Stability result in data set [1] is “Stable”. Further, the microsomal CLint at 1 µM in [2] turned out to be 44.7 µL/min/mg. The half-life at 1 µM stood at 154 min in [3] and 31.5 min in [5]. Moreover, in [4], the solubility kinetic at 5 min is more than 200 µM.
Take `CC(=O)C1=C(O)[C@@]2(CC=C(C)C)C[C@H](CC=C(C)C)C(C)(C)[C@@](CC=C(C)C)(C1=O)C2=O`: the outcome with PC12 was inactive.
On to `C=CC[C@@]12C[C@H](CC=C(C)C)C(C)(C)[C@@](CC=C)(C(=O)C(C(C)=O)=C1O)C2=O` [listing 1 of 2 here], for which, in [4], the solubility kinetic at 5 min is 49.1 µM (≈ 18.9 µg/mL).
On to `CCCCCCCC/C=C\CCCCCCCC(=O)OC[C@H](CO)OC(C)=O`, for which the result in data set [6] and in [7] was Active.
On to `CC(C)=CCC[C@]1(C)[C@@H](CC=C(C)C)C[C@]2(CC=C(C)C)C(=O)C(CC=C(C)C)=C(O)[C@@]1(C(=O)C(C)C)C2=O`, for which the outcome (in the data set with PC12 (filed as agonist); in data set [6]) was Active.
For the compound `C=CC[C@@]12C[C@H](CC=C(C)C)C(C)(C)[C@@](CC=C)(C(=O)C(C(C)=O)=C1O)C2=O` [listing 2 of 2 here], the outcome (in the data set with PC12 (filed as agonist); in [8]; in data set [6]) was Active.
With `CC(C)=CC[C@H]1C[C@@]2(CC=C(C)C)C(=O)[C@](CC=C(C)C)(C(=O)C(C(=O)c3ccccc3)=C2O)C1(C)C`, the result in the data set with PC12 was inactive.

Source of the values: ChEMBL document CHEMBL5390267, “Selective Activation of a TRPC6 Ion Channel Over TRPC3 by Metalated Type-B Polycyclic Polyprenylated Acylphloroglucinols” (J Med Chem, 2023).
